This assay has as its target T1, human mAChR M4 (Homo sapiens, UniProt P08173).
T1 construct: expressed in transfected cells
T1 sequence (P08173 1-479): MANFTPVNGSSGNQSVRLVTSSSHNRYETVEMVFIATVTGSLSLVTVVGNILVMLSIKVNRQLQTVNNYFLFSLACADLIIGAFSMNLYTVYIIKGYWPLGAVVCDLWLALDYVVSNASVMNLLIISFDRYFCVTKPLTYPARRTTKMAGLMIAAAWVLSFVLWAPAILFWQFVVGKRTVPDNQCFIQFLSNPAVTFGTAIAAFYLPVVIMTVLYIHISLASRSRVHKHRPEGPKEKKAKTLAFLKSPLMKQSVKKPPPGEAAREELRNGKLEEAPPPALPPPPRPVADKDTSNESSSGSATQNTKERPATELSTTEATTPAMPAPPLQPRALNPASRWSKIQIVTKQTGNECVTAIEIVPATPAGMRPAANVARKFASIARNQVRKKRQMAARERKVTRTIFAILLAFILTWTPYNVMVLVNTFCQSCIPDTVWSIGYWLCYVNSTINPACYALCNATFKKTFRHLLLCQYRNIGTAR
Put plainly: mAChR M4 cell-based functional assay (calcium mobilization, CHO-K1 hM4-Gqi5 cells). The following applies: for Emax at 30 µM: CHO-K1, % ACh maximum at 30 μM, human M4; for EC50: positive allosteric modulator activity, increase in the EC20 acetylcholine response, CHO-K1 hM4-Gqi5 cells, read-out: Human M4 EC50. An outline of the steps: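 Fluorescent calcium read-out (Fluo-4 AM, FDSS, 1 Hz) in hM4-Gqi5 CHO-K1 cells, 11-point 1:3 compound series. Agonism scored on compound addition, PAM activity as increase of the 144 s EC20 acetylcholine response, antagonism as decrease of the 230 s EC80 response; four-parameter logistic fits give EC50 and Emax.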

Take `Cc1c(C#N)nnc(N2CCc3ncc(N4CCO[C@@H](c5ccccc5)C4)cc3C2)c1C` [Example 379, (S)-4,5-dimethyl-6-(3-(2-phenylmorpholino)-7,8-dihydro-1,6-naphthyridin-6(5H)-yl)pyridazine-3-carbonitrile]: the maximal response (Emax) at 30 µM is 47% and the EC50 was determined as 3600 nM.

On to `Cc1c(C#N)nnc(N2CCc3ncc(N4CCOC(c5ccccn5)C4)cc3C2)c1C` (centres unmarked) [Example 380, 4,5-dimethyl-6-(3-(2-(pyridin-2-yl)morpholino)-7,8-dihydro-1,6-naphthyridin-6(5H)-yl)pyridazine-3-carbonitrile], for which the maximal response (Emax) at 30 µM is 63% and the concentration giving a half-maximal response (EC50) amounted to 2150 nM.

Turning to `Cc1cc(C#N)nnc1N1CCc2ncc(N3CC(C)Cn4nccc43)cc2C1` (centres unmarked) [Example 381, 5-methyl-6-(3-(6-methyl-6,7-dihydropyrazolo[1,5-a]pyrimidin-4(5H)-yl)-7,8-dihydro-1,6-naphthyridin-6(5H)-yl)pyridazine-3-carbonitrile], the maximal effect (Emax) at 30 µM is 98% and the EC50 amounted to 384 nM.

Consider `Cc1cc2n(n1)CCCN2c1cnc2c(c1)CN(c1nnc(C#N)cc1C)CC2` [Example 382, 5-methyl-6-(3-(2-methyl-6,7-dihydropyrazolo[1,5-a]pyrimidin-4(5H)-yl)-7,8-dihydro-1,6-naphthyridin-6(5H)-yl)pyridazine-3-carbonitrile], for which the Emax at 30 µM was 98% and the EC50 was 74 nM.

On to `Cc1cc(C#N)nnc1N1CCc2ncc(N3CCC(C)n4nccc43)cc2C1` (centres unmarked) [Example 383, 5-methyl-6-(3-(7-methyl-6,7-dihydropyrazolo[1,5-a]pyrimidin-4(5H)-yl)-7,8-dihydro-1,6-naphthyridin-6(5H)-yl)pyridazine-3-carbonitrile], for which the maximal response (Emax) at 30 µM came out at 97% and the concentration for a half-maximal effect (EC50) stood at 171 nM.

`Cc1cc(C#N)cnc1N1CCc2ncc(N3CC(C)Cn4nccc43)cc2C1` (centres unmarked) [Example 384, 5-methyl-6-(3-(6-methyl-6,7-dihydropyrazolo[1,5-a]pyrimidin-4(5H)-yl)-7,8-dihydro-1,6-naphthyridin-6(5H)-yl)nicotinonitrile]: the Emax at 30 µM is 100% and the half-maximal effective concentration (EC50) amounted to 185 nM.

For `Cc1cc2n(n1)CCCN2c1cnc2c(c1)CN(c1ncc(C#N)cc1C)CC2` [Example 385, 5-methyl-6-(3-(2-methyl-6,7-dihydropyrazolo[1,5-a]pyrimidin-4(5H)-yl)-7,8-dihydro-1,6-naphthyridin-6(5H)-yl)nicotinonitrile], the maximal response (Emax) at 30 µM is 103% and the concentration for a half-maximal effect (EC50) was 40 nM.

Take `Cc1cc(C#N)cnc1N1CCc2ncc(N3CCC(C)n4nccc43)cc2C1` (centres unmarked) [Example 386, 5-methyl-6-(3-(7-methyl-6,7-dihydropyrazolo[1,5-a]pyrimidin-4(5H)-yl)-7,8-dihydro-1,6-naphthyridin-6(5H)-yl)nicotinonitrile]: the Emax at 30 µM was found to be 103% and the EC50 turned out to be 76 nM.

`Cc1cc(C#N)cnc1N1CCc2ncc(N3CCOC(c4ccccn4)C3)cc2C1` (centres unmarked) [Example 387, 5-methyl-6-(3-(2-(pyridin-2-yl)morpholino)-7,8-dihydro-1,6-naphthyridin-6(5H)-yl)nicotinonitrile]: the Emax at 30 µM amounted to 71% and the half-maximal effective concentration (EC50) was 861 nM.

Turning to `Cc1c(C#N)nnc(N2CCc3ncc(N4CCOC(c5cccnc5)C4)cc3C2)c1C` (centres unmarked) [Example 388, 4,5-dimethyl-6-(3-(2-(pyridin-3-yl)morpholino)-7,8-dihydro-1,6-naphthyridin-6(5H)-yl)pyridazine-3-carbonitrile], the Emax at 30 µM came out at 83% and the EC50 worked out at 1250 nM.

On to `Cc1cc(C#N)cnc1N1CCc2ncc(N3CCOC(c4cccnc4)C3)cc2C1` (centres unmarked) [Example 389, 5-methyl-6-(3-(2-(pyridin-3-yl)morpholino)-7,8-dihydro-1,6-naphthyridin-6(5H)-yl)nicotinonitrile], for which the Emax at 30 µM was 92% and the EC50 was determined as 942 nM.

Turning to `Cc1ncc(-c2cnc3c(c2)CN(c2nnc(C#N)cc2C)CC3)s1` [Example 390, 5-methyl-6-(3-(2-methylthiazol-5-yl)-7,8-dihydro-1,6-naphthyridin-6(5H)-yl)pyridazine-3-carbonitrile], the Emax at 30 µM is 78% and the EC50 is 433 nM.

As for `Cc1cc(C#N)nnc1N1CCc2ncc(N3CCOc4ncccc43)cc2C1` [Example 391, 6-(3-(2,3-dihydro-1H-pyrido[2,3-b][1,4]oxazin-1-yl)-7,8-dihydro-1,6-naphthyridin-6(5H)-yl)-5-methylpyridazine-3-carbonitrile], the maximum response (Emax) at 30 µM came to 89% and the EC50 was determined as 53 nM.

In the case of `Cc1ccc(-c2cnc3c(c2)CN(c2nnc(C#N)cc2C)CC3)cn1` [Example 392, 5-methyl-6-(3-(6-methylpyridin-3-yl)-7,8-dihydro-1,6-naphthyridin-6(5H)-yl)pyridazine-3-carbonitrile], the Emax at 30 µM amounted to 85% and the half-maximal effective concentration (EC50) amounted to 458 nM.

As for `Cc1cc(C#N)nnc1N1CCc2ncc(C3CC3)cc2C1` [Example 393, 6-(3-cyclopropyl-7,8-dihydro-1,6-naphthyridin-6(5H)-yl)-5-methylpyridazine-3-carbonitrile], the EC50 came out at 111 nM. Moreover, for the setting “CHO-K1”, the Emax was 88%.

Regarding `Cc1cc(C#N)nnc1N1CCc2ncc(-c3ccnn3C)cc2C1` [Example 394, 5-methyl-6-(3-(1-methyl-1H-pyrazol-5-yl)-7,8-dihydro-1,6-naphthyridin-6(5H)-yl)pyridazine-3-carbonitrile], the Emax at 30 µM was determined as 86% and the concentration for a half-maximal effect (EC50) is 1080 nM.

As to `Cc1cc(C#N)cnc1N1CCc2ncc(C3CCOC3)cc2C1` (centres unmarked) [Example 395, 5-methyl-6-(3-(tetrahydrofuran-3-yl)-7,8-dihydro-1,6-naphthyridin-6(5H)-yl)nicotinonitrile], the maximal response (Emax) at 30 µM stood at 90% and the concentration giving a half-maximal response (EC50) was determined as 389 nM.

For the molecule `Cc1cc(C#N)nnc1N1CCc2ncc(Oc3ccccc3F)cc2C1` [Example 396, 6-(3-(2-fluorophenoxy)-7,8-dihydro-1,6-naphthyridin-6(5H)-yl)-5-methylpyridazine-3-carbonitrile], the maximum response (Emax) at 30 µM amounted to 87% and the half-maximal effective concentration (EC50) was found to be 65 nM.

Turning to `Cc1cc(C#N)nnc1N1CCc2ncc(N3CCO[C@H](C)C3)cc2C1` [Example 397, (R)-5-methyl-6-(3-(2-methylmorpholino)-7,8-dihydro-1,6-naphthyridin-6(5H)-yl)pyridazine-3-carbonitrile], the maximum response (Emax) at 30 µM is 72% and the 50% effective concentration (EC50) came to 441 nM.

Turning to `Cc1cc(C#N)nnc1N1CCc2ncc(N3CCOC(C)(C)C3)cc2C1` [Example 398, 6-(3-(2,2-dimethylmorpholino)-7,8-dihydro-1,6-naphthyridin-6(5H)-yl)-5-methylpyridazine-3-carbonitrile], the Emax at 30 µM was 74% and the EC50 is 102 nM.

Consider `Cc1cc(C#N)nnc1N1CCc2ncc(Nc3cccnc3F)cc2C1` [Example 399, 6-(3-((2-fluoropyridin-3-yl)amino)-7,8-dihydro-1,6-naphthyridin-6(5H)-yl)-5-methylpyridazine-3-carbonitrile], for which the maximal response (Emax) at 30 µM turned out to be 73% and the EC50 was found to be 219 nM.

On to `Cc1cc(C#N)nnc1N1CCc2ncc(-n3cccn3)cc2C1` [Example 400, 6-(3-(1H-pyrazol-1-yl)-7,8-dihydro-1,6-naphthyridin-6(5H)-yl)-5-methylpyridazine-3-carbonitrile], for which the Emax at 30 µM stood at 56% and the EC50 was found to be 1050 nM.

For the molecule `Cc1cc(C#N)nnc1N1CCc2ncc(-c3c(C)noc3C)cc2C1` [Example 401, 6-(3-(3,5-dimethylisoxazol-4-yl)-7,8-dihydro-1,6-naphthyridin-6(5H)-yl)-5-methylpyridazine-3-carbonitrile], the Emax at 30 µM stood at 76% and the half-maximal effective concentration (EC50) was 522 nM.

For the molecule `Cc1cc(C#N)nnc1N1CCc2ncc(C3CCC3)cc2C1` [Example 402, 6-(3-cyclobutyl-7,8-dihydro-1,6-naphthyridin-6(5H)-yl)-5-methylpyridazine-3-carbonitrile], the Emax at 30 µM was found to be 91% and the EC50 turned out to be 150 nM.

For `Cc1cc(C#N)cnc1N1CCc2ncc(C3CCC3)cc2C1` [Example 403, 6-(3-cyclobutyl-7,8-dihydro-1,6-naphthyridin-6(5H)-yl)-5-methylnicotinonitrile], the maximal effect (Emax) at 30 µM stood at 91% and the EC50 was 84 nM.

On to `Cc1cc(C#N)nnc1N1Cc2cc(N3CCOCC3)cnc2C(C)C1` (centres unmarked) [Example 404, 5-methyl-6-(8-methyl-3-morpholino-7,8-dihydro-1,6-naphthyridin-6(5H)-yl)pyridazine-3-carbonitrile], for which the Emax at 30 µM came to 72% and the EC50 is 901 nM.

Consider `Cc1cc(C#N)cnc1N1Cc2cc(N3CCOCC3)cnc2C(C)C1` (centres unmarked) [Example 405, 5-methyl-6-(8-methyl-3-morpholino-7,8-dihydro-1,6-naphthyridin-6(5H)-yl)nicotinonitrile], for which the Emax at 30 µM was determined as 83% and the EC50 is 415 nM.

For `Cc1cc(C#N)cnc1N1CCc2ncc(N3CCN(C)C(=O)C3)cc2C1` [Example 409, 5-methyl-6-(3-(4-methyl-3-oxopiperazin-1-yl)-7,8-dihydro-1,6-naphthyridin-6(5H)-yl)nicotinonitrile], the maximal response (Emax) at 30 µM was determined as 96% and the concentration giving a half-maximal response (EC50) was found to be 1100 nM.

The record behind these values is patent US20250230155A1 (Vanderbilt University, priority 2021, published 2025).
